“And” between values parts separate entries of the source, which are not always exact repeats. Identical values can stand only once. Toxic doses and inconclusive results are not listed.
Tested on: P388 leukemia ip, CD2F1 mice, survival T/C
Assay: NCI In Vivo Anticancer Drug Screen. Data for tumor model P388 Leukemia (intraperitoneal) in CD2F1 (CDF1) mice
Conditions: endpoint: median survival time, higher = longer survival
Outline: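 Mice carrying the transplanted tumor received test compound or vehicle. Survival was recorded in each group, and the value is the treated-group measurement divided by that of the vehicle-treated control group.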

[1] = dose: 60.0 mg/kg/injection, schedule: Q01DX005 (ip), vehicle: Klucel (hydroxypropylcellulose) (HPC)
[2] = dose: 50.0 mg/kg/injection, schedule: Q01DX009 (ip), vehicle: Klucel (hydroxypropylcellulose) (HPC)
[3] = dose: 100.0 mg/kg/injection, schedule: Q01DX009 (ip), vehicle: Klucel (hydroxypropylcellulose) (HPC)
[4] = dose: 60.0 mg/kg/injection, schedule: Q01DX005 (ip), vehicle: saline with Tween-80
[5] = dose: 120.0 mg/kg/injection, schedule: Q01DX005 (ip), vehicle: saline with Tween-80
[6] = dose: 240.0 mg/kg/injection, schedule: Q01DX005 (ip), vehicle: saline with Tween-80
[7] = dose: 50.0 mg/kg/injection, schedule: Q04DX003 (ip), vehicle: saline with Tween-80
[8] = dose: 100.0 mg/kg/injection, schedule: Q04DX003 (ip), vehicle: saline with Tween-80
[9] = dose: 200.0 mg/kg/injection, schedule: Q04DX003 (ip), vehicle: saline with Tween-80

NC1CCNC(O)[N-]1.NC1CCNC(O)[N-]1.[Br][Pd][Br] (stereo not given)
T/C [1]: 99 % of control | T/C (dose: 120.0 mg/kg/injection, schedule: Q01DX005 (ip), vehicle: Klucel (hydroxypropylcellulose) (HPC)): 100 % of control | T/C (dose: 240.0 mg/kg/injection, schedule: Q01DX005 (ip), vehicle: Klucel (hydroxypropylcellulose) (HPC)): 102 % of control

CCc1nc(N)nc(-c2nc(N)nc(CC)c2C)c1C
T/C (dose: 60.0 mg/kg/injection, schedule: Q01DX005 (ip), vehicle: saline): 106 % of control | T/C (dose: 120.0 mg/kg/injection, schedule: Q01DX005 (ip), vehicle: saline): 104 % of control | T/C (dose: 240.0 mg/kg/injection, schedule: Q01DX005 (ip), vehicle: saline): 108 % of control

O=c1[nH]c2nc3ccccc3n2c(=O)c2ccccc12
T/C (dose: 100.0 mg/kg/injection, schedule: Q01DX001 (ip), vehicle: Klucel (hydroxypropylcellulose) (HPC)): 98 % of control | T/C (dose: 200.0 mg/kg/injection, schedule: Q01DX001 (ip), vehicle: Klucel (hydroxypropylcellulose) (HPC)): 98 % of control | T/C (dose: 400.0 mg/kg/injection, schedule: Q01DX001 (ip), vehicle: Klucel (hydroxypropylcellulose) (HPC)): 95 % of control

CC([NH-])C(=O)O.O=C(O)CN(CC(=O)O)CC(=O)O.[Co+2]
T/C (dose: 25.0 mg/kg/injection, schedule: Q01DX009 (ip), vehicle: saline): 104 % of control | T/C (dose: 50.0 mg/kg/injection, schedule: Q01DX009 (ip), vehicle: saline): 113 % of control | T/C (dose: 100.0 mg/kg/injection, schedule: Q01DX009 (ip), vehicle: saline): 104 % of control and 90 % of control

FC(F)(F)Sc1c(SC(F)(F)F)c(SC(F)(F)F)n(-n2c(SC(F)(F)F)c(SC(F)(F)F)c(SC(F)(F)F)c2SC(F)(F)F)c1SC(F)(F)F
T/C (dose: 15.0 mg/kg/injection, schedule: Q01DX005 (ip), vehicle: Klucel (hydroxypropylcellulose) (HPC)): 104 % of control | T/C (dose: 30.0 mg/kg/injection, schedule: Q01DX005 (ip), vehicle: Klucel (hydroxypropylcellulose) (HPC)): 106 % of control | T/C [1]: 103 % of control and 97 % of control

O=C1CSC(c2cccc(Cl)c2Cl)N1c1nncs1 (stereo not given)
T/C (dose: 100.0 mg/kg/injection, schedule: Q04DX002 (ip), vehicle: saline with Tween-80): 112 % of control | T/C (dose: 200.0 mg/kg/injection, schedule: Q04DX002 (ip), vehicle: saline with Tween-80): 94 % of control | T/C (dose: 400.0 mg/kg/injection, schedule: Q04DX002 (ip), vehicle: saline with Tween-80): 97 % of control

N#CC1C(=O)NC(=O)C(C#N)C1c1ccncc1 (stereo not given)
T/C [2]: 103 % of control | T/C [3]: 104 % of control | T/C (dose: 200.0 mg/kg/injection, schedule: Q01DX009 (ip), vehicle: Klucel (hydroxypropylcellulose) (HPC)): 103 % of control

O=S(=O)(Nc1ccccc1Cl)c1ccc(F)cc1
T/C [4]: 96 % of control | T/C [5]: 104 % of control | T/C [6]: 100 % of control

CN(N=O)C(=O)Nc1c[nH]c(=O)[nH]c1=O
T/C (dose: 25.0 mg/kg/injection, schedule: Q01DX009 (ip), vehicle: saline sonified): 186 % of control | T/C (dose: 25.0 mg/kg/injection, schedule: Q04DX003 (ip), vehicle: saline with Tween-80): 190 % of control | T/C (dose: 50.0 mg/kg/injection, schedule: Q01DX009 (ip), vehicle: saline sonified): 200 % of control | T/C [7]: 195 % of control | T/C (dose: 66.0 mg/kg/injection, schedule: Q04DX003 (ip), vehicle: saline with Tween-80): 163 % of control | T/C [8]: 186 % of control and 190 % of control | T/C (dose: 150.0 mg/kg/injection, schedule: Q04DX003 (ip), vehicle: saline with Tween-80): 90 % of control

O=[N+]([O-])C(CO)CCCC(CO)[N+](=O)[O-] (stereo not given)
T/C (dose: 50.0 mg/kg/injection, schedule: Q01DX005 (ip), vehicle: saline): 111 % of control | T/C (dose: 100.0 mg/kg/injection, schedule: Q01DX005 (ip), vehicle: saline): 107 % of control | T/C (dose: 200.0 mg/kg/injection, schedule: Q01DX005 (ip), vehicle: saline): 107 % of control

CCCCCN(CCCCC)CCCCCCCCN1CCCc2ccccc21
T/C (dose: 50.0 mg/kg/injection, schedule: Q01DX005 (ip), vehicle: saline with Tween-80): 106 % of control | T/C (dose: 100.0 mg/kg/injection, schedule: Q01DX005 (ip), vehicle: saline with Tween-80): 108 % of control | T/C (dose: 200.0 mg/kg/injection, schedule: Q01DX005 (ip), vehicle: saline with Tween-80): 117 % of control

O=C1NC(=O)C(c2ccccc2)(c2ccccc2)N1CCS
T/C (dose: 12.5 mg/kg/injection, schedule: Q04DX003 (ip), vehicle: saline): 108 % of control | T/C (dose: 25.0 mg/kg/injection, schedule: Q04DX003 (ip), vehicle: Klucel (hydroxypropylcellulose) (HPC)): 98 % of control and 108 % of control | T/C (dose: 25.0 mg/kg/injection, schedule: Q04DX003 (ip), vehicle: saline): 100 % of control | T/C (dose: 50.0 mg/kg/injection, schedule: Q04DX003 (ip), vehicle: Klucel (hydroxypropylcellulose) (HPC)): 98 % of control and 99 % of control | T/C (dose: 50.0 mg/kg/injection, schedule: Q04DX003 (ip), vehicle: saline): 104 % of control | T/C (dose: 100.0 mg/kg/injection, schedule: Q04DX003 (ip), vehicle: Klucel (hydroxypropylcellulose) (HPC)): 97 % of control | T/C (dose: 100.0 mg/kg/injection, schedule: Q04DX003 (ip), vehicle: saline): 108 % of control | T/C (dose: 200.0 mg/kg/injection, schedule: Q04DX003 (ip), vehicle: Klucel (hydroxypropylcellulose) (HPC)): 100 % of control and 117 % of control | T/C (dose: 200.0 mg/kg/injection, schedule: Q04DX003 (ip), vehicle: saline): 94 % of control | T/C (dose: 400.0 mg/kg/injection, schedule: Q04DX003 (ip), vehicle: Klucel (hydroxypropylcellulose) (HPC)): 106 % of control and 109 % of control

CC(C)(C)NC(=O)Nc1cccc(C(=O)O)c1
T/C [4]: 99 % of control | T/C [5]: 96 % of control | T/C [6]: 105 % of control

NC(=O)c1ccc(=S)[nH]c1
T/C (dose: 12.5 mg/kg/injection, schedule: Q01DX009 (ip), vehicle: Klucel (hydroxypropylcellulose) (HPC)): 106 % of control | T/C (dose: 25.0 mg/kg/injection, schedule: Q01DX009 (ip), vehicle: Klucel (hydroxypropylcellulose) (HPC)): 103 % of control | T/C [2]: 97 % of control | T/C [3]: 103 % of control

CC(=O)C(=N/O)/C(C)=N/NC(=O)CC#N
T/C (dose: 100.0 mg/kg/injection, schedule: Q04DX009 (ip), vehicle: saline): 101 % of control | T/C (dose: 200.0 mg/kg/injection, schedule: Q04DX009 (ip), vehicle: saline): 100 % of control

COc1cc2c(cc1OC)C(CS(C)=O)Cc1cc(OC)c(OC)cc1N(C)CCC2 (stereo not given)
T/C [8]: 93 % of control | T/C [9]: 87 % of control | T/C (dose: 400.0 mg/kg/injection, schedule: Q04DX003 (ip), vehicle: saline with Tween-80): 100 % of control

CC(C)COP(=O)(OCC(C)C)OCC(C)C
T/C (dose: 25.0 mg/kg/injection, schedule: Q01DX009 (ip), vehicle: saline with Tween-80): 100 % of control | T/C (dose: 50.0 mg/kg/injection, schedule: Q01DX009 (ip), vehicle: saline with Tween-80): 109 % of control | T/C [7]: 100 % of control | T/C [8]: 90 % of control | T/C [9]: 95 % of control

C=C1CCC2C(OC(=O)C2(COC(C)=O)OC(C)=O)C2C(=C)C(OC(C)=O)CC12 (stereo not given)
T/C (dose: 11.25 mg/kg/injection, schedule: Q01DX005 (ip), vehicle: Klucel (hydroxypropylcellulose) (HPC)): 100 % of control | T/C (dose: 22.5 mg/kg/injection, schedule: Q01DX005 (ip), vehicle: Klucel (hydroxypropylcellulose) (HPC)): 97 % of control | T/C (dose: 45.0 mg/kg/injection, schedule: Q01DX005 (ip), vehicle: Klucel (hydroxypropylcellulose) (HPC)): 103 % of control | T/C (dose: 90.0 mg/kg/injection, schedule: Q01DX005 (ip), vehicle: Klucel (hydroxypropylcellulose) (HPC)): 104 % of control | T/C (dose: 180.0 mg/kg/injection, schedule: Q01DX005 (ip), vehicle: Klucel (hydroxypropylcellulose) (HPC)): 99 % of control

COC(=O)/C(=C1/OC(=O)C(c2ccc(OC(C)=O)cc2)=C1O)c1ccc(Cl)cc1
T/C (dose: 50.0 mg/kg/injection, schedule: Q01DX009 (ip), vehicle: saline + Tween-80 + alcohol): 111 % of control | T/C (dose: 100.0 mg/kg/injection, schedule: Q01DX009 (ip), vehicle: saline + Tween-80 + alcohol): 115 % of control

Oc1ccc(C[n+]2ccccc2)cc1O
T/C (dose: 3.12 mg/kg/injection, schedule: Q01DX005 (ip), vehicle: saline): 101 % of control and 97 % of control | T/C (dose: 6.25 mg/kg/injection, schedule: Q01DX005 (ip), vehicle: saline): 102 % of control and 103 % of control | T/C (dose: 12.5 mg/kg/injection, schedule: Q01DX005 (ip), vehicle: saline): 100 % of control and 105 % of control | T/C (dose: 25.0 mg/kg/injection, schedule: Q01DX005 (ip), vehicle: saline): 92 % of control and 97 % of control

Source: PubChem BioAssay AID330 (DTP/NCI, 2004)
